Reference: US5593678A, “Protection of teleost fish” (University of Georgia Research Foundation, priority 1994, dated 1997)
Like-named read-outs stand apart in the source and are kept apart here.

Experiments:
IM-9 target cells = system: IM-9 target cells
Procedure: In further studies, NCC were treated with different concentrations of protein phosphatase inhibitors for two hours and labeled IM-9 target cells were added for a four-hour microcytotoxicity assay (Table 8). […] To determine if the activating effects of the protein phosphatase inhibitors were reversible, NCC were treated for 90 minutes with NaF and vanadate and then the inhibitors were removed prior to addition of the labeled target cells.

[1] = system: NCC from stressed fish (lysis of IM-9 target cells); conditions: for Percent Specific Release (stressed fish): 100:1, control 0.9
Procedure: (§1) A ^51 Cr release assay was used to determine cytotoxicity. Target cells at 1-2×10^6 cells/ml were labeled with 100 μCi of sodium chromate (Amersham, Arlington Heights, Ill.). NCC effector cells were treated as previously described [Evans et al. (1988) supra], centrifuged (500 g), and resuspended in media and added at different E:T ratios to the labeled target cells in round-bottomed 96-well microtiter plates. This mixture was incubated (25° C.) for 4-6 hours and 100 μl of each supernatant was removed to determine radioactivity (Beckman Biogamma II Counter; Beckman Instruments, Irvine, Calif.). The results are expressed as either percentage specific release (SR)=[(test release--spontaneous release)/(total release--spontaneous release)]×100; percent inhibition=[(percentage control SR--percentage test SR)/percentage control SR]×100; and percentage increase=(percentage test SR--percentage control SR)/percentage control SR.
A common observation in fish exposed to stress, e.g., toxicants, drastic temperature changes, handling, etc., is the temporary loss of NCC activity.

[2] = system: phosphotidylinositol phosphate phosphatase; conditions: cited from earlier work
protein phosphatase = conditions: cited from earlier work
CRC cells = experiment: Lytic activity of CRC cells (rat leukemic NK cells); assay type: cell-based, rat (F344)
Excerpt: The present invention relates to the relevance of protein phosphatase inhibitors to the protection of other species and other types of natural killer cells. For example, the CRC cells (tissue cultured cells obtained from peripheral blood of leukemic F344 rats) are perhaps more interesting (e.g., another model to study the effects of vanadate on altering immunosuppressed NK function) because these are in vitro maintained rat leukemic NK cells which have spontaneously lost cytotoxicity against YAC-1 target cells. […] It is possible that the discovery of this activity of protein phosphatase inhibitors may have widespread importance for studies of mechanisms of signaling in all vertebrates. Additionally, these inhibitors may have clinical importance in circumstances of immunosuppression, immunodeficiency and other conditions of altered immune activity.

[3] = system: human prostate gland phosphotyrosyl protein phosphatase; conditions: cited from earlier work
calcineurin = conditions: cited from earlier work
[4] = system: NCC (lysis of IM-9 target cells); conditions: for Percentage of control (NCC cytotoxic activity): 120 minutes; for effect of removal of inhibitor on NCC activation (words): 90 minutes treatment, washed, E:T 40:1
Procedure: FIG. 4. Individual and combined effects of phosphatase inhibitors on NCC cytotoxicity, NCC (7×10^5 cells) were incubated with either media (.diamond.), vanadate (Δ) (5 mM). NaF (.smallcircle.) (20 mM), or both vanadate and NaF (.quadrature.) for the indicated time periods before addition to labeled IM-9 target cells.
FIG. 5. Effects of removal of Na3 VO4 on NCC activation. NCC were harvested, incubated for three hours, washed, counted and added to duplicate tubes containing either media alone or media containing 2.5, 5 and 10 mM vanadate. Following a 90 minutes incubation time, the cells were either washed and resuspended in media (closed circles) or added directly (open circles) to wells containing ^51 chromium labeled IM-9 target cells (E:T ratio 40:1).
FIG. 6. Effects of removal of NaF on NCC activation. NCC were harvested, incubated for three hours in media, washed, counted and added to duplicate tubes containing media alone or in the presence of 5, 10 and 20 mM NaF. Following a 90 minutes treatment time, NCC were either washed (closed circles) or added directly (open circles) to wells containing labeled IM-9 target cells (E:t ratio 40:1).
FIG. 7. Effects of Na3 VO4 on NCC with different levels of cytotoxicity. NCC were harvested from anterior kidneys of fish from three different sources. The cells were incubated in media for three hours, washed, counted and added to test tubes containing either media alone or media with 2.5, 5 and 10 mM vanadate. Following a two hours incubation time, the effectors were added to wells containing labeled IM-9 cells at a 40:1 E:T ratio.
FIG. 8. Effects of NaF on NCC with different levels of cytotoxicity. NCC were harvested from anterior kidneys of fish from three different sources. The cells were incubated in media for three hours, washed, counted and added to media or media with 5, 10 and 20 mM NaF. Following a two-hour incubation, NCC were added to wells containing ^51 chromium labeled IM-9 target cells for a final E:T ratio of 40:1.
as §1
NCC were obtained as previously described [Graves et al. (1984) supra]; Evans et al. (1984) supra]. […] NCC were then washed and resuspended at 20×10^6 cells/ml, and 35 μl aliquots were added to test tubes containing 315 μl media only (media control) or media containing the indicated treatments. After 2 hr incubation, the cells were mixed with ^51 Cr-labeled IM-9 target cells and incubated for 4-6 hours ([…]). Supernatants were harvested and cytotoxicity levels were calculated as previously described.
Membrane phosphorylation is maintained through a delicate equilibrium between cellular kinase and phosphatase activities.
In further studies, NCC were treated with different concentrations of protein phosphatase inhibitors for two hours and labeled IM-9 target cells were added for a four-hour microcytotoxicity assay (Table 8).

NCC = conditions: relatively high concentrations

Structure (SMILES): [Cl-].[Li+] [Lithium chloride, lithium chloride]
- toxicity to labeled IM-9 targets (IM-9 target cells): not toxic
- effect on cytotoxicity, stressed fish [1]: no effects on cytotoxicity
- phosphotidylinositol phosphate phosphatase activity [2]: specifically inhibited

Structure (SMILES): [F-].[Na+] [Sodium fluoride, sodium fluoride]
- protein phosphatase activity (protein phosphatase): vanadate but not fluoride inhibited protein phosphatase activity
- increase in the lytic activity of CRC cells (CRC cells): 3 -fold
- toxicity to labeled IM-9 targets (IM-9 target cells; 20 mM): not toxic
- Percent Specific Release (stressed fish) ([1]; NaF 5 mM): 1.4%
- Percent Specific Release (stressed fish) ([1]; NaF 10 mM): 4.4%
- Percent Specific Release (stressed fish) ([1]; NaF 20 mM): 22.0%
- human prostate gland phosphotyrosyl protein phosphatase [3]: fluoride, but not vanadate inhibited human prostate gland phosphotyrosyl protein phosphatase
- calcineurin-mediated dephosphorylation (calcineurin): fluoride, but not vanadate inhibited
- cytotoxicity in presence of inhibitor, normal NCC [4]: significant increased cytotoxicity
- effect on NCC cytotoxicity [4]: activated the cytotoxicity of NCC
- Percentage of control (NCC cytotoxic activity) ([4]; 5 mM, E:T 25:1): 210.3%
- Percentage of control (NCC cytotoxic activity) ([4]; 5 mM, E:T 50:1): 136.9%
- Percentage of control (NCC cytotoxic activity) ([4]; 5 mM, E:T 100:1): 123.2%
- Percent Specific Release ([4]; 5 mM, E:T 10, media 39): 48%
- Percent Specific Release ([4]; 5 mM, E:T 25, media 4): 9%
- Percent Specific Release ([4]; 5 mM, E:T 50, media 21): 29%
- Percentage of control (NCC cytotoxic activity) ([4]; 10 mM, E:T 25:1): 333.3%
- Percentage of control (NCC cytotoxic activity) ([4]; 10 mM, E:T 50:1): 183.9%
- Percentage of control (NCC cytotoxic activity) ([4]; 10 mM, E:T 100:1): 153.7%
- Percent Specific Release ([4]; 10 mM, E:T 10, media 39): 60%
- Percent Specific Release ([4]; 10 mM, E:T 25, media 4): 14%
- Percent Specific Release ([4]; 10 mM, E:T 50, media 21): 39%
- Percentage of control (NCC cytotoxic activity) ([4]; 20 mM, E:T 25:1): 635.3%
- Percentage of control (NCC cytotoxic activity) ([4]; 20 mM, E:T 100:1): 157.3%
- Percent Specific Release ([4]; 20 mM, E:T 10, media 39): 61%
- Percent Specific Release ([4]; 20 mM, E:T 25, media 4): 28%
- Percent Specific Release ([4]; 20 mM, E:T 50, media 21): 49%
- effect of removal of inhibitor on NCC activation (words) ([4]; listed as NaF): almost completely obliterated activation
- effect of removal of inhibitor on NCC activation (words) ([4]; listed as fluoride): almost completely obliterated NCC activation
- effect of removal of inhibitor on NCC activation (words) ([4]; listed as sodium fluoride): lost
- toxicity to NCC (NCC): not toxic to NCC
